For 1 compound, Kd results are on record in publication PMC3517602 (PLoS ONE, 2012).

As usually defined, the Kd is the equilibrium constant for the complex coming apart. A higher Kd goes with lower affinity.

For this assay, the target named is T1, neuropeptide Y Y1 receptor (Y1R) (Homo sapiens, UniProt P25929).
T1 construct: gene NPY1R
T1 sequence (P25929 1-384): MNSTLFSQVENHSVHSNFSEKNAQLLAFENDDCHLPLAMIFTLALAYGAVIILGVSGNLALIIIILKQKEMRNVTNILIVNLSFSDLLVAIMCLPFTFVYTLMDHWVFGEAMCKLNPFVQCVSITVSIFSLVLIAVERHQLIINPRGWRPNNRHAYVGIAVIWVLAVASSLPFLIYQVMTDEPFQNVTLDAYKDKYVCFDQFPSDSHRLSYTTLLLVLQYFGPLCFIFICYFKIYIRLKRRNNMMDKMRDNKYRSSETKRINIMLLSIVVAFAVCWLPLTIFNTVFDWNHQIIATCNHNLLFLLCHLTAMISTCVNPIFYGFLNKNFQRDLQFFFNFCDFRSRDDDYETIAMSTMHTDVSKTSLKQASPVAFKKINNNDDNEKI
Description: radioligand saturation binding on whole MCF-7 (L) cells. In kind it is cell-based.

As to `CCC(=O)/N=C(/N)NCCC[C@@H](NC(=O)C(c1ccccc1)c1ccccc1)C(=O)NCc1ccc(O)cc1` [[^3H]-UR-MK114], the Kd came out at 5 nM.
